One series has as its system HLA supertype alleles. The series is classed as binding, human.
The next series deals with HLA-A*0101 (Homo sapiens, UniProt P04439, A114D/A174V/A182V/D101N/D185E/E176A/E190D/L180R/Q94H/R68K/S129P/T187R/V100A/V91M/W191G). Nature of the series: HLA class I peptide binding assay (purified HLA, IC50).
The next series has as its system HLA-A2 transgenic mice. The series is described as follows: IFN-γ ELISPOT CTL responses after DNA immunization. The series is classed as in vivo, mouse. Conditions: mice immunized with GCR-5835.
Series [1] deals with PBL from individuals with acute or chronic HBV infection. Conditions: independently reported (Sobao et al. 2001); cited from earlier work.
The test system of a further series is H2^bxd mice. Nature of the series: CTL response after peptide/IFA immunization, in situ ELISA. The series is classed as in vivo, mouse. To be noted: peptide/IFA immunization of H2^bxd mice. A general note: An ELISA detects its analyte on a solid surface through an enzyme-linked reagent.
The next series has as its system HLA transgenic mice. Nature of the series: CTL priming in HLA transgenic mice after DNA immunization (in situ IFNγ ELISA or chromium release).
Setting [2] is: A1 or A24 supertype, three related alleles.
Setting [3] is: A2, A3 or B7 supertype, five most common members.

Like-named read-outs stand apart in the source and are kept apart here. Ends that are not written are not given here.

A word on the IC50: it is the concentration at which inhibition is half-maximal. With H-YSLNFMGY-OH [pol 580], the “XRN (number of supertype alleles bound ≦500 nM)” value in the series on HLA supertype alleles (setting [2]) amounted to 3. Also, the IC50 at HLA-A*0101 came to 382 nM. As to `CC(C)C[C@H](NC(=O)[C@H](CO)NC(=O)[C@H](CC(C)C)NC(=O)[C@@H](N)Cc1c[nH]c2ccccc12)C(=O)N[C@@H](CC(C)C)C(=O)N[C@H](C(=O)N1CCC[C@H]1C(=O)N[C@@H](Cc1ccccc1)C(=O)N[C@H](C(=O)O)C(C)C)C(C)C` [env 335], in the series with HLA supertype alleles (setting [3]), the “XRN (number of supertype alleles bound ≦500 nM)” value was 4. Besides, in the series on HLA-A2 transgenic mice, the “Primary ELISPOT response” value is on record as “approximately 100 SFC/10^6 CD8+ cells”. Consider `CC(C)C[C@H](NC(=O)[C@H](CC(C)C)NC(=O)[C@H](Cc1c[nH]c2ccccc12)NC(=O)[C@@H]1CCCN1C(=O)[C@H](Cc1ccccc1)NC(=O)[C@H](CO)NC(=O)[C@@H](NC(=O)[C@H](Cc1ccc(O)cc1)NC(=O)[C@@H](N)CCCCN)[C@@H](C)O)C(=O)O` [pol 745], for which, in series [1], the “Recognition by CTL from HBV-infected individuals” value is reported as “recognized by CTL from HBV-infected individuals”. Further, the “Murine Immunogenicity (SU)” value with H2^bxd mice turned out to be 158.7 SU. Take `CC[C@H](C)[C@H](NC(=O)[C@@H](NC(=O)[C@H](CC(C)C)NC(=O)[C@@H](NC(=O)[C@H](CCCNC(=N)N)NC(=O)[C@@H](NC(=O)[C@H](CC(C)C)NC(=O)[C@H](CC(C)C)NC(=O)[C@@H](N)Cc1ccccc1)[C@@H](C)O)[C@@H](C)CC)[C@@H](C)O)C(=O)O` [env 183]: the “XRN (number of supertype alleles bound ≦500 nM)” value in the series on HLA supertype alleles (setting [3]) is 4. Besides, the “Immunogenicity of the epitope in construct HBV30C” value with HLA transgenic mice (mouse, in vivo) was “poorly immunogenic”.

Turning to LTFGRETVLEY [core 137], in the series on HLA supertype alleles (setting [2]), the “XRN (number of supertype alleles bound ≦500 nM)” value came out at 3. This molecule also registered a half-maximal inhibitory concentration (IC50) on HLA-A*0101 of 80 nM.

B1: HBV30K: lead 30 epitope HBV CTL vaccine epigene construct, SEQ ID NO: 71/72 (nucleic acid)
DNA: ATGGGAATGCAGGTGCAAATACAGTCTCTCTTCCTTTTGCTTCTCTGGGTTCCAGGATCACGGGGCTTCTTGCTTAGCTTGGGCATCCACCTAAATGCTGCTGCAAAATACACATCTTTTCCTTGGCTCCTTAATGCCGCCGCTAGGTTTTCATGGCTGAGTCTGCTAGTACCTTTCAATGCGGCTTTCCCACATTGCCTAGCTTTTAGCTATATGAAAGCTGCTTTAGTCGTGGACTTTTCACAGTTTAGCAGAGGAGCAATCCTGCTGCTATGTCTGATATTCCTTCTAAACGCAGCAGCCCACACACTCTGGAAAGCTGGTATCCTTTACAAGAAAGCCTGGATGATGTGGTATTGGGGACCCAGCCTCTACAAAGCATACCCTGCCCTGATGCCACTATACGCATGCATTGGCGCGGCAGCCTGGTTATCCCTTTTAGTACCGTTTGTCAACGCCGCAGCGGGATTTCTATTAACCAGAATCCTGACGATTAATGCTGCCGCCATTCCGATCCCAAGTTCCTGGGCATTCAAAGCAGCCGCGGAGTATCTGGTTTCATTTGGCGTATGGAACCTGCCAAGCGACTTCTTTCCTTCTGTTAAGGCCGCTGCTTTCCTCCCCTCCGATTTCTTTCCATCGGTGAAAGCCGCTGCCGACCTCCTTGATACCGCGAGCGCTCTGTACAACTCGTGGCCAAAATTCGCAGTTCCAAACCTAAAAGCCGCCGCCAGTGCCATTTGTTCCGTGGTAAGGAGAAAATTATCACTCGACGTGTCCGCAGCATTTTATAACGCTGCTGCAAAGTTTGTCGCAGCATGGACATTGAAGGCTGCAGCGAAAGCAGCAAATGTATCAATACCCTGGACCCACAAGGGTGCAGCCGGGCTGTCTAGGTATGTGGCGAGGCTAAACGCCGCCGCCTCAACACTGCCTGAGACTACTGTCGTGAGACGCAAACACCCTGCCGCAATGCCCCACCTGCTGAAAGCAGCCGCACGATGGATGTGCCTCAGAAGATTCATAATAAACGCTTCTTTCTGTGGGTCACCCTACAAAGCCGCTTACATGGACGATGTGGTCCTCGGAGTGAATGCCCTCTGGTTCCATATCAGCTGCCTGACATTCAAGGCAGCCGCCACCCCCGCTCGTGTGACAGGAGGTGTCTTCAAAGCCGCGGCACTGACTTTCGGTCGGGAAACTGTATTGGAATATAAGCAGGCCTTCACATTCTCCCCAACATACAAGTGA
modifications: Hepatitis B Virus
Turning to B1, the “CTL responses induced by the construct (in words)” value in the series with HLA transgenic mice (HLA transgenic mice (HLA-A2, -A3/A11; H2^bxd for A24)) is “CTL responses as vigorous as HBV2”.

These data come from patent US7507803B2, “Optimized multi-epitope constructs and uses thereof” (priority 2002, dated 2009).
